PubChem BioAssay (NCI)
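Growth conditions: 96-well plates. Treatment: test compound, 48 hours, 5 concentrations. Analysis: linear interpolation between bracketing concentrations; unreached endpoints set to highest concentration. The concentration for full growth arrest is given as TGI.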

Key:
Assay in all cases: NCI-60 cell line screen, 48 h
LOX IMVI melanoma = test system: LOX IMVI melanoma
SK-MEL-28 melanoma = test system: SK-MEL-28 melanoma
MCF7 breast = test system: MCF7 breast
U251 CNS = test system: U251 CNS
OVCAR-5 ovarian = test system: OVCAR-5 ovarian
SNB-75 CNS = test system: SNB-75 CNS
ACHN renal = test system: ACHN renal
RXF 393 renal = test system: RXF 393 renal
MDA-MB-231 breast = test system: MDA-MB-231 breast
SK-MEL-5 melanoma = test system: SK-MEL-5 melanoma
HCC-2998 colon = test system: HCC-2998 colon
NCI-H460 lung = test system: NCI-H460 lung
CAKI-1 renal = test system: CAKI-1 renal
A498 renal = test system: A498 renal
TK-10 renal = test system: TK-10 renal
DU-145 prostate = test system: DU-145 prostate
A549 NSCLC = test system: A549 NSCLC
UO-31 renal = test system: UO-31 renal
SNB-19 CNS = test system: SNB-19 CNS
M14 melanoma = test system: M14 melanoma
NCI-H522 lung = test system: NCI-H522 lung
MDA-N = test system: MDA-N
HCT-15 colon = test system: HCT-15 colon
MOLT-4 leukemia = test system: MOLT-4 leukemia
OVCAR-3 ovarian = test system: OVCAR-3 ovarian
NCI/ADR-RES ovarian = test system: NCI/ADR-RES ovarian
HCT-116 colon = test system: HCT-116 colon
786-0 renal = test system: 786-0 renal
SK-MEL-2 melanoma = test system: SK-MEL-2 melanoma
SN12C renal = test system: SN12C renal
OVCAR-8 ovarian = test system: OVCAR-8 ovarian
HL-60(TB) leukemia = test system: HL-60(TB) leukemia
SF-539 CNS = test system: SF-539 CNS
K-562 leukemia = test system: K-562 leukemia
SF-268 CNS = test system: SF-268 CNS
T-47D breast = test system: T-47D breast
BT-549 breast = test system: BT-549 breast
OVCAR-4 ovarian = test system: OVCAR-4 ovarian
MALME-3M melanoma = test system: MALME-3M melanoma
UACC-62 melanoma = test system: UACC-62 melanoma
SW-620 colon = test system: SW-620 colon
KM12 colon = test system: KM12 colon
UACC-257 melanoma = test system: UACC-257 melanoma
SR leukemia = test system: SR leukemia
MDA-MB-435 = test system: MDA-MB-435
NCI-H226 lung = test system: NCI-H226 lung
IGROV1 ovarian = test system: IGROV1 ovarian
HOP-62 NSCLC = test system: HOP-62 NSCLC
CCRF-CEM leukemia = test system: CCRF-CEM leukemia
HT29 colon = test system: HT29 colon
PC-3 prostate = test system: PC-3 prostate
SF-295 CNS = test system: SF-295 CNS
HOP-92 NSCLC = test system: HOP-92 NSCLC
RPMI-8226 leukemia = test system: RPMI-8226 leukemia
HS 578T breast = test system: HS 578T breast
NCI-H23 lung = test system: NCI-H23 lung

Measured: TGI

Cc1ccc(-c2c3c(n(C4OC(CO)C(O)C(O)C4O)c(=S)c2C#N)CC(C)(C)CC3=O)cc1 (stereo unspecified)
> 100 µM: all assays above
